This experiment concerns the target T1, human GBA2 (from lysates of GBA2 overexpressed cells) (Homo sapiens, UniProt Q9HCG7).
T1 construct: expressed in transfected cells; host or cells: HEK293T
T1 sequence (Q9HCG7 1-927): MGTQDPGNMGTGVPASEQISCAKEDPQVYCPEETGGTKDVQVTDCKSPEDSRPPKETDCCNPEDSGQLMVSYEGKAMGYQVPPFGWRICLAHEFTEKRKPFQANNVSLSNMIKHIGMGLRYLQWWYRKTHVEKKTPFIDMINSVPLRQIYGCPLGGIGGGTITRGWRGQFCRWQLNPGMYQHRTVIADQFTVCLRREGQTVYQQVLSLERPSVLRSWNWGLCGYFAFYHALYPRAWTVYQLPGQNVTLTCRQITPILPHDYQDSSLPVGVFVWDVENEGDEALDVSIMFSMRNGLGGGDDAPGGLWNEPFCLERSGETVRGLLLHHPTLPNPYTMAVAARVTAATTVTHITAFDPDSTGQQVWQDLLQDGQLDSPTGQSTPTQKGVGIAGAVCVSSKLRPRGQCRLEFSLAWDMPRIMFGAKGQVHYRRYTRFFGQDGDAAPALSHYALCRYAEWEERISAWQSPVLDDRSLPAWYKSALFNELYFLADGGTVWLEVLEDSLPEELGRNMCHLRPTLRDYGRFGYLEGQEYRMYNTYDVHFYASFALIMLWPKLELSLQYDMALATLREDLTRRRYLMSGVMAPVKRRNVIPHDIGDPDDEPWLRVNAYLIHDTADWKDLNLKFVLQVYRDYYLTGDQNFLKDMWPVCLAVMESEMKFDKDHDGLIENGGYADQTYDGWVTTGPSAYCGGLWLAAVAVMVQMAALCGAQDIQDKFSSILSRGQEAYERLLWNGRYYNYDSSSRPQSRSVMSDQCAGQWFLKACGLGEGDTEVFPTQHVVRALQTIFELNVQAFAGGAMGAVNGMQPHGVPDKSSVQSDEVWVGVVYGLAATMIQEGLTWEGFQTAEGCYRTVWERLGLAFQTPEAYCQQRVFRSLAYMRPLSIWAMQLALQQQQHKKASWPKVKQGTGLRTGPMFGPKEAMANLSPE
The experiment in a line: In vitro apparent IC50, fluorogenic substrate assay on GBA2 in lysates of overexpressing cells. In kind it is biochemical. How it is done:
All assays were performed in duplicate sets, each with 3 technical replicates at each inhibitor concentration. DMSO concentration was kept at 0.5 %–1 % (v/v) in all assays during incubation with compounds. In vitro apparent IC50 values were calculated by fitting data with [inhibitor] vs. response‐various slope (four parameters) function using Graphpad Prism 7.0 software. Average values and standard deviations were calculated from the two sets.

Take `CCCCCCCCN1[C@@H]2[C@H](Cn3cc(CNC(=O)CCCCC[N+]4=C(/C=C/C=C/C=C5/N(C)c6ccccc6C5(C)C)C(C)(C)c5ccccc54)nn3)[C@@H](O)[C@H](O)[C@@H](O)[C@@H]21` (stereo partly shown) [ABP 6]: the IC50 was over 100 µM.

For orientation: IC50 means the concentration needed to halve the response being measured.

Values taken from PMC9298352, “Design, Synthesis and Structural Analysis of Glucocerebrosidase Imaging Agents” (Chemistry (Weinheim an Der Bergstrasse, Germany), 2021).
